The values below come from ChEMBL document CHEMBL5724914, “Linking interpersonal differences in gut microbiota composition and drug biotransformation activity” (2024).

A short description of data set [1]: The drug is tested on Z-026 corresponding to metagenome with ENA study accession number: PRJEB37062 and ENA sample accession number: ERS12561825 for biotransformation under anaerobic condition. The drug concentrations were measured over 9 timepoints collected between 0 and 24 hours of incubation by liquid-chromatography-coupled mass spectrometry (LC–MS). As to conditions: 2 µM.

For data set [2] the following is noted: human gut metagenome, 24 h, 2 µM.
Data set [3] in a line: The drug is tested on Z-017 corresponding to mouse gut metagenome with ENA study accession number: PRJEB37062 and ENA sample accession number: ERS12561816 for biotransformation under anaerobic condition. The drug concentrations were measured over 9 timepoints collected between 0 and 24 hours of incubation by liquid-chromatography-coupled mass spectrometry (LC–MS). The note with it: 2 µM.

Data set [4] in a line: The drug is tested on WLS-039 corresponding to human gut metagenome with ENA study accession number: PRJEB37062 and ENA sample accession number: ERS12561746 for biotransformation under anaerobic condition. The drug concentrations were measured over 9 timepoints collected between 0 and 24 hours of incubation by liquid-chromatography-coupled mass spectrometry (LC–MS). As to conditions: 2 µM.

The conditions of data set [5]: human gut metagenome, 24 h, 2 µM. This is another data set of the same source.
For data set [6] the following is noted: human gut metagenome, 24 h, 2 µM. This is another data set of the same source.
The nature of data set [7]: The drug is tested on Z-007 corresponding to rat gut metagenome with ENA study accession number: PRJEB37062 and ENA sample accession number: ERS12561807 for biotransformation under anaerobic condition. The drug concentrations were measured over 9 timepoints collected between 0 and 24 hours of incubation by liquid-chromatography-coupled mass spectrometry (LC–MS). The note with it: 2 µM.

The nature of data set [8]: The drug is tested on Z-009 corresponding to pig gut metagenome with ENA study accession number: PRJEB37062 and ENA sample accession number: ERS12561809 for biotransformation under anaerobic condition. The drug concentrations were measured over 9 timepoints collected between 0 and 24 hours of incubation by liquid-chromatography-coupled mass spectrometry (LC–MS). The note with it: 2 µM.

Data set [9] is described as follows: The drug is tested on WLS-006 corresponding to human gut metagenome with ENA study accession number: PRJEB37062 and ENA sample accession number: ERS12561741 for biotransformation under anaerobic condition. The drug concentrations were measured over 9 timepoints collected between 0 and 24 hours of incubation by liquid-chromatography-coupled mass spectrometry (LC–MS). The note with it: 2 µM.

For data set [10] the following is noted: human gut metagenome, 24 h, 2 µM. This is another data set of the same source.
Data set [11] in a line: The drug is tested on Z-004 corresponding to metagenome with ENA study accession number: PRJEB37062 and ENA sample accession number: ERS12561804 for biotransformation under anaerobic condition. The drug concentrations were measured over 9 timepoints collected between 0 and 24 hours of incubation by liquid-chromatography-coupled mass spectrometry (LC–MS). As to conditions: 2 µM.

The conditions of data set [12]: human gut metagenome, 24 h, 2 µM. The source holds these as a separate data set.
The conditions of data set [13]: human gut metagenome, 24 h, 2 µM. The source holds these as a separate data set.
Data set [14] is described as follows: The drug is tested on WLS-240 corresponding to human gut metagenome with ENA study accession number: PRJEB37062 and ENA sample accession number: ERS12561773 for biotransformation under anaerobic condition. The drug concentrations were measured over 9 timepoints collected between 0 and 24 hours of incubation by liquid-chromatography-coupled mass spectrometry (LC–MS). As to conditions: 2 µM.

Data set [15] in a line: The drug is tested on Z-005 corresponding to metagenome with ENA study accession number: PRJEB37062 and ENA sample accession number: ERS12561805 for biotransformation under anaerobic condition. The drug concentrations were measured over 9 timepoints collected between 0 and 24 hours of incubation by liquid-chromatography-coupled mass spectrometry (LC–MS). The note with it: 2 µM.

The nature of data set [16]: The drug is tested on Z-028 corresponding to mouse gut metagenome with ENA study accession number: PRJEB37062 and ENA sample accession number: ERS12561827 for biotransformation under anaerobic condition. The drug concentrations were measured over 9 timepoints collected between 0 and 24 hours of incubation by liquid-chromatography-coupled mass spectrometry (LC–MS). The note with it: 2 µM.

A short description of data set [17]: The drug is tested on Z-030 corresponding to mouse gut metagenome with ENA study accession number: PRJEB37062 and ENA sample accession number: ERS12561829 for biotransformation under anaerobic condition. The drug concentrations were measured over 9 timepoints collected between 0 and 24 hours of incubation by liquid-chromatography-coupled mass spectrometry (LC–MS). As to conditions: 2 µM.

The conditions of data set [18]: human gut metagenome, 24 h, 2 µM. This is another data set of the same source.
The conditions of data set [19]: human gut metagenome, 24 h, 2 µM. This is another data set of the same source.
The conditions of data set [20]: human gut metagenome, 24 h, 2 µM. This is another data set of the same source.
Also: call rule not given here.

In the case of `Cc1cc(C)cc(OCC2CNC(=O)O2)c1` (stereo not given) [METAXALONE], the “Bacterial Biotransformation” value in data set [1], in data set [2], in data set [3], in data set [4], in data set [5] and in [6] was “Compound metabolized” in each case. Further, the “Bacterial Biotransformation” value is “Compound NOT metabolized” in data set [7]; “Compound NOT metabolized” in data set [8]; “Compound metabolized” in [9]; “Compound metabolized” in [10]; “Compound NOT metabolized” in data set [11]; “Compound metabolized” in data set [12]. In addition, the “Bacterial Biotransformation” value is reported as “Compound metabolized” in data set [13]; “Compound metabolized” in data set [14]; “Compound NOT metabolized” in data set [15]; “Compound NOT metabolized” in data set [16]; “Compound NOT metabolized” in [17]; “Compound metabolized” in data set [18]. Moreover, the entries for the “Bacterial Biotransformation” value in data set [19] and in data set [20] were “Compound metabolized” and “Compound NOT metabolized”, respectively.
As to `OCCN(CCO)c1nc(N2CCCCC2)c2nc(N(CCO)CCO)nc(N3CCCCC3)c2n1` [DIPYRIDAMOLE], the “Bacterial Biotransformation” value in [1] is on record as “Compound metabolized”; in data set [2], “Compound NOT metabolized”; in [3] it was “Compound NOT metabolized”; in data set [4], “Compound metabolized”; in [5], “Compound metabolized”; in data set [6], “Compound metabolized”. Besides, the “Bacterial Biotransformation” value in data set [7] is on record as “Compound NOT metabolized”; in data set [8], “Compound metabolized”; in data set [9], “Compound NOT metabolized”; in data set [10] it was “Compound metabolized”; in data set [11], “Compound NOT metabolized”; in data set [12], “Compound metabolized”. For the same compound, the “Bacterial Biotransformation” value was “Compound metabolized” in [13]; “Compound metabolized” in [14]; “Compound metabolized” in [15]; “Compound NOT metabolized” in [16]; “Compound NOT metabolized” in data set [17]; “Compound metabolized” in data set [18]. Besides, the “Bacterial Biotransformation” value in data set [19] and in data set [20] was “Compound NOT metabolized” throughout.
Turning to `Nc1nnc(-c2cccc(Cl)c2Cl)c(N)n1` [LAMOTRIGINE], the “Bacterial Biotransformation” value in data set [1] was “Compound NOT metabolized”; in [2] it was “Compound NOT metabolized”; in [3], “Compound NOT metabolized”; in data set [4] it was “Compound NOT metabolized”; in data set [5] it was “Compound metabolized”; in data set [6], “Compound NOT metabolized”. Also, the “Bacterial Biotransformation” value in [7], in data set [8], in [9], in data set [10], in data set [11] and in data set [12] was “Compound NOT metabolized” throughout. The “Bacterial Biotransformation” value is listed as “Compound NOT metabolized” in [13]; “Compound metabolized” in data set [14]; “Compound NOT metabolized” in [15]; “Compound NOT metabolized” in [16]; “Compound NOT metabolized” in [17]; “Compound NOT metabolized” in data set [18]. The “Bacterial Biotransformation” value in data set [19] and in [20] was “Compound NOT metabolized” throughout.
Take `O=C(NC(Cc1cc(=O)[nH]c2ccccc12)C(=O)O)c1ccc(Cl)cc1` (stereo not given) [REBAMIPIDE]: the “Bacterial Biotransformation” value in data set [1], in [2], in data set [3], in data set [4], in [5] and in data set [6] was “Compound NOT metabolized” in each case. Also, the “Bacterial Biotransformation” value in data set [7], in [8], in data set [9], in [10], in data set [11] and in data set [12] was “Compound NOT metabolized” each time. Further, the “Bacterial Biotransformation” value in [13] is given as “Compound metabolized”; in [14] it was “Compound NOT metabolized”; in [15], “Compound NOT metabolized”; in data set [16], “Compound NOT metabolized”; in data set [17], “Compound NOT metabolized”; in data set [18] it was “Compound NOT metabolized”. For the same compound, the “Bacterial Biotransformation” value in data set [19] and in data set [20] was “Compound NOT metabolized” in each case.
Take `c1ccc2[nH]c(-c3cscn3)nc2c1` [THIABENDAZOLE]: the “Bacterial Biotransformation” value is recorded as “Compound NOT metabolized” in data set [1]; “Compound NOT metabolized” in data set [2]; “Compound NOT metabolized” in data set [3]; “Compound NOT metabolized” in [4]; “Compound metabolized” in data set [5]; “Compound NOT metabolized” in [6]. Also, the “Bacterial Biotransformation” value in [7] is “Compound NOT metabolized”; in data set [8], “Compound NOT metabolized”; in data set [9], “Compound NOT metabolized”; in data set [10] it was “Compound metabolized”; in data set [11] it was “Compound NOT metabolized”; in data set [12], “Compound NOT metabolized”. The “Bacterial Biotransformation” value is reported as “Compound NOT metabolized” in data set [13]; “Compound metabolized” in data set [14]; “Compound NOT metabolized” in data set [15]; “Compound NOT metabolized” in data set [16]; “Compound NOT metabolized” in data set [17]; “Compound NOT metabolized” in data set [18]. The “Bacterial Biotransformation” value in data set [19] and in data set [20] was “Compound NOT metabolized” in each case.
For the compound `COc1ccc(C(CN(C)C)C2(O)CCCCC2)cc1` (stereo not given) [VENLAFAXINE], the “Bacterial Biotransformation” value in data set [1], in data set [2], in data set [3], in data set [4], in [5] and in [6] was “Compound NOT metabolized” in each case. Moreover, the “Bacterial Biotransformation” value in [7] was “Compound NOT metabolized”; in [8], “Compound NOT metabolized”; in data set [9], “Compound NOT metabolized”; in data set [10], “Compound metabolized”; in data set [11], “Compound NOT metabolized”; in [12], “Compound NOT metabolized”. Also, the “Bacterial Biotransformation” value in data set [13] is “Compound NOT metabolized”; in [14] it was “Compound metabolized”; in data set [15] it was “Compound NOT metabolized”; in [16], “Compound NOT metabolized”; in data set [17], “Compound NOT metabolized”; in [18], “Compound NOT metabolized”. The “Bacterial Biotransformation” value in [19] and in data set [20] was “Compound NOT metabolized” throughout.
